Values after ≈ are worked out from the molar mass of the structure shown.
Legend:
HeLa cells = assay: Potentiation Factor (PF50), MMS growth inhibition, SRB assay; type: cell-based; details: with MMS, ratio of IC50 control / IC50 with PARP inhibitor; for mean PF50 at 30 nM: compound at 30 nM; for mean PF50 at 200 nM: compound at 200 nM
Procedure: The Potentiation Factor (PF50) for compounds is calculated as a ratio of the IC50 of control cell growth divided by the IC50 of cell growth+PARP inhibitor. Growth inhibition curves for both control and compound treated cells are in the presence of the alkylating agent methyl methanesulfonate (MMS). […] The concentrations of MMS were over a range from 0 to 10 μg/ml.
Cell growth was assessed using the sulforhodamine B (SRB) assay (Skehan, P., et al., (1990) New calorimetric cytotoxicity assay for anticancer-drug screening. J. Natl. Cancer Inst. 82, 1107-1112). 2,000 HeLa cells were seeded into each well of a flat-bottomed 96-well microtiter plate in a volume of 100 μl and incubated for 6 hours at 37° C. […] Cells were allowed to grow for a further 1 hour before the addition of MMS at a range of concentrations (typically 0, 1, 2, 3, 5, 7 and 10 μg/ml) to either untreated cells or PARP inhibitor treated cells. Cells treated with PARP inhibitor alone were used to assess the growth inhibition by the PARP inhibitor.
Cells were left for a further 16 hours before replacing the media and allowing the cells to grow for a further 72 hours at 37° C. The media was then removed and the cells fixed with 100 μl of ice cold 10% (w/v) trichloroacetic acid. The plates were incubated at 4° C. for 20 minutes and then washed four times with water. Each well of cells was then stained with 100 μl of 0.4% (w/v) SRB in 1% acetic acid for 20 minutes before washing four times with 1% acetic acid. Plates were then dried for 2 hours at room temperature. The dye from the stained cells was solubilized by the addition of 100 μl of 10 mM Tris Base into each well. Plates were gently shaken and left at room temperature for 30 minutes before measuring the optical density at 564 nm on a Microquant microtiter plate reader.

Solubility assay = type: physicochemical; details: thermodynamic from solid; water; 20 hours at room temperature
Procedure: A typical assay that may be used to assess the solubility of the compounds of the present invention is as follows. The solubility of the compound is assessed in water and phosphate-buffered saline (pbs) at pH 7.4. The samples are all allowed to equilibrate in the solvent (with shaking) for 20 hours at room temperature. After that period, the samples will be visually examined to determine the presence/absence of un-dissolved solid. The samples will be centrifuged or filtered as necessary to remove insoluble material, and the solution analysed to determine solubility of the DS, diluting both aqueous and DMSO samples to a similar concentration with DMSO. The area of the peak obtained by HPLC (using the diode array detector) from the sample will be compared to the area of the peak from the DMSO solution (diluted to the same concentration as the sample) and quantified taking into account the weight of sample taken for initial dissolution. The assumption is made that the sample will be completely soluble in DMSO at the levels used for testing.
Comparing the ratio of the peak areas, and knowing the concentration of the original samples, the solubility may be calculated.
About 1 mg of the sample is weighed accurately into a 4-ml glass vial and exactly 1.0 ml of water, aqueous buffer or DMSO, is added to it by pipette. Each vial is ultrasonicated for up to 2 minutes to assist solublisation of the solid. The samples are retained at room temperature for 20 hours, shaking on an orbital shaker. The vials are examined after this period to determine the presence/absence of un-dissolved solid. The samples should be centrifuged, or filtered through a 0.45 μm filter, to remove insoluble material if necessary, and the filtrate analysed to determine concentration of the compound in solution, after diluting all samples as appropriate with DMSO. 20 μl is injected onto the HPLC using the method shown below, injecting all samples in duplicate. The maximum solubility that can be determined using this method is nominally 1.0 mg/ml, the weight taken divided by the volume of solvent used. […]

[1] = tested on: BRAC2 complemented (VC8+BAC) cells; assay: VC8 assay, growth inhibition (SRB), complemented cells; type: cell-based, hamster; details: BRCA2 complemented VC8+BAC cells
Procedure: (§1) In order to assess the growth inhibitory action of compounds on BRCA2 deficient (VC8−hamster line) and BRAC2 complemented (VC8+BAC) cells the following assay was used to determine GI50 values.
500 VC8 cells or 200 VC8+BAC cells were seeded into each well of a flat-bottomed 96-well microtiter plate in a volume of 90 μl and incubated for 4-6 hours at 37° C. […]
(§2) Cells were left for a further 48 hours before replacing the media with fresh media (no compound) and allowing the cells to grow for a total of 120 hours at 37° C. The medium was then removed and the cells fixed with 50 μl of ice cold 10% (w/v) tricholoracetic acid. The plates were incubated at 4° C. for 30 minutes and then washed three times with water. Each well of cells was then stained with 50 μl of 0.4% (w/v) sulforhodamine B (SRB) in 1% acetic acid for 15 minutes before washing three times with 1% acetic acid. Plates were then dried for 2 hours at room temperature. The dye from the stained cells was solubilised by the addition of 100 μl of 10 mM Tris Base into each well. Plates were then shaken and the optical density at 564 nm was measured on a Microquant microtiter plate reader.
The GI50 is calculated as the μM concentration of compound required to inhibit 50% of cell growth.

[2] = tested on: BRCA2 deficient (VC8) cells; assay: VC8 assay, growth inhibition (SRB); type: cell-based, hamster; details: V-C8
Procedure: as §1
500 VC8 cells or 200 VC8+BAC cells were seeded into each well of a flat-bottomed 96-well microtiter plate in a volume of 90 μl and incubated for 4-6 hours at 37° C. All compounds were diluted in media (Dulbecco's Modified Eagle's Medium (DMEM), 10% Fetal Bovine Serum, Penicillin/Sretptomycin/Glutamine) and added to the cells at final concentrations of between 0 and 300 nM.
as §2, with “reader. […]” for “reader.”

| SMILES | solubility at 20 h (Solubility assay) [µg/mL] | mean PF50 at 30 nM (HeLa cells) | mean PF50 at 200 nM (HeLa cells) | GI50 [1] [µM] | GI50 [2] [µM] |
| --- | --- | --- | --- | --- | --- |
| C[C@@H]1NC(=O)N(c2cc(Cc3n[nH]c(=O)c4c3CCCC4)ccc2F)C1=O (single isomer, unassigned) [Compound 13a] |  | 25 |  |  |  |
| C[C@H]1NC(=O)N(c2cc(Cc3n[nH]c(=O)c4c3CCCC4)ccc2F)C1=O (single isomer, unassigned) [Compound 13b] |  | 9 |  |  |  |

Continued, in another order:

| solubility at 20 h (Solubility assay) [µg/mL] | SMILES | mean PF50 at 30 nM (HeLa cells) | mean PF50 at 200 nM (HeLa cells) | GI50 [1] [µM] | GI50 [2] [µM] |
| --- | --- | --- | --- | --- | --- |
| 500 (≈ 1420 µM) | CC1NC(=O)N(c2cccc(Cc3n[nH]c(=O)c4c3CCCC4)c2)C1=O (stereo not shown) [Compound 6, 5-Methyl-3-[3-(4-oxo-3,4,5,6,7,8-hexahydro-phthalazin-1-ylmethyl)-phenyl]-imidazolidine-2,4-dione] |  | 20 |  |  |
| 900 (≈ 2430 µM) | CC1NC(=O)N(c2cc(Cc3n[nH]c(=O)c4c3CCCC4)ccc2F)C1=O (stereo not shown) [Compound 13, 3-[2-Fluoro-5-(4-oxo-3,4,5,6,7,8-hexahydro-phthalazin-1-ylmethyl)-phenyl]-5-methylimidazolidine-2,4-dione] |  | 57 | 29 | 0.0105 |
| 105 (≈ 287 µM) | CC1(C)NC(=O)N(c2cccc(Cc3n[nH]c(=O)c4c3CCCC4)c2)C1=O [Compound 15, 5,5-dimethyl-3-[3-[(4-oxo-5,6,7,8-tetrahydro-3H-phthalazin-1-yl)methyl]phenyl]imidazolidine-2,4-dione] |  | 2 |  |  |

From patent publication US7981890B2, “Phthalazinone derivatives” (AstraZeneca AB, priority 2007, dated 2011)
